# Results from patent US20240261375A1, “PHARMACEUTICAL COMPOSITION FOR TREATING OR PREVENTING DISORDER ASSOCIATED WITH ADMINISTRATION OF ANTICANCER AGENT” (LTT BIO-PHARMA CO., LTD., priority 2021, published 2024).
# Tests used:
# [1] = system: Large intestine cancer cells (colo320, HCT116); assay: Proliferation of large intestine cancer cells (CCK-8); assay type: cell-based; conditions: OXA dilutions + PC-SOD 50 μg/mL, 72 hours; FIG. 6
# Procedure: Large intestine cancer cells (colo320, HCT116) were added to RPM1640 medium (Thermo Fisher Scientific Inc.) containing 10% fetal bovine serum and 100 units/mL penicillin-streptomycin (Gibco BRL) and cultured at 37° C. in a 5% CO2 incubator.
# Cells were seeded on a 96-well plate at 10 000 cells/well and treated with a test solution 24 hours later. A test solution containing OXA alone was diluted 3-fold from 100 μM (10 levels) and added to a 96-well plate. A test solution containing OXA+PC-SOD was obtained by adding the same concentrations of OXA to PC-SOD (50 μg/mL) (n=3 per group). After cells were cultured for 72 hours, a CCK-8 solution was added in a volume of 1/10 of the solution in each well, and the mixture was measured at 490 nm of absorbance (Tecan, Tecan Japan). Data were expressed with mean±standard error (SEM). It should be noted that experiment conditions were allowed to be changed as required.
# [2] = system: PC12 cells differentiated by NGF; assay: Neurite retraction in NGF-differentiated PC12 cells caused by anticancer agents; assay type: cell-based, rat; conditions: 24 hours; for neurite retraction caused by oxaliplatin: oxaliplatin 20 μM
# Procedure: Rat adrenal gland pheochromocytoma-derived PC12 cells are known to be differentiated into neuron-like cells having neurites by nerve growth factor (NGF) and are widely used as a nerve cell model. To assess the neurite-protective action of PC-SOD, the effect of PC-SOD in neurite disorder caused by various anticancer agents was analyzed by using PC12 cells differentiated by NGF.
# PC12 cells were seeded on a 24-well plate coated with collagen at 5 000 cells/well. […] The images of cells were captured by using a microscope (BZ-X800, Keyence Corporation), and the neurite lengths were measured by using an image analysis software ImageJ (NIH).
# PC12 cells were seeded on a 24-well plate coated with collagen at 5 000 cells/well. […] After neurite elongation, cells were cultured by using differentiation media each containing carboplatin (with a final concentration of 50 μM) alone or carboplatin and PC-SOD (with final concentrations of 10, 20, 50, and 100 μg/mL) for 24 hours. The images of cells were captured by using a microscope (BZ-X800, Keyence Corporation), and the neurite lengths were measured by using an image analysis software ImageJ (NIH).
# PC12 cells were seeded on a 24-well plate coated with collagen at 5 000 cells/well. […] After neurite elongation, cells were cultured by using differentiation media each containing paclitaxel (abbreviated as PTX in the figure of results) alone (with a final concentration of 0.1 μM) or paclitaxel and PC-SOD (with final concentrations of 10, 50, and 100 μg/mL) for 24 hours. The images of cells were captured by using a microscope (BZ-X800, Keyence Corporation), and the neurite lengths were measured by using an image analysis software ImageJ (NIH).
# [3] = system: kidney of CIS-treated rats; assay: Assessment of kidney disorder caused by cisplatin in rats; assay type: in vivo, rat; conditions: CIS 3 mg/kg i.p. 8 doses
# Procedure: Six to eight-week-old male SD rats (from 200 to 400 g) were used. […] A total of eight doses were given with a regimen of twice weekly for four weeks (Days 1, 2, 7, 8, 13, 14, 19, and 20). A solvent for CIS, i.e., physiological saline, was similarly administered to a control group. […] Laboratory animals were divided into three groups: a control group, a CIS administration group, and a group receiving administration of CIS and PC-SOD 1 mg/kg (CIS+PC-SOD administration group) (n=6 per group).
# For an experiment of prevention, PC-SOD was administered into the caudal vein from five to 15 minutes after CIS administration in the CIS+PC-SOD administration group. A total of eight doses were given with a regimen of twice weekly for four weeks (Days 1, 2, 7, 8, 13, 14, 19, and 20). A solvent for PC-SOD was similarly administered to the control group and the CIS administration group. The rat kidney weight was measured, and changes in the kidney weight were corrected with body weight. Further, a photograph of the kidney was taken to check changes in size and morphology of the kidney (Scale bar=10 mm).
# For pathological analysis, a split was put in the sagittal plane of the collected kidney, and the kidney was fixed with 10% formalin to prepare a paraffin block by using Histos 5 (Milestone) and an embedding center (EG1160, Leica). The sample block was thinly sliced by using a microtome (MR2245, Leica) at a thickness of 3 μm to prepare a slide. The prepared slide was subjected to Periodic acid-Schiff (PAS) staining for assessment of clinical condition and Picrosirius Red staining for assessment of fibrosis. A fibrosis marker α-SMA was stained by an immunostaining method. […] Observation and assessment were performed by observing the whole section. Four to nine images of tissue on the cortical side on which the disorder was induced were randomly taken up, and inflammation, tubular necrosis, protein agglutination in renal tubules, vacuolation, and necrosis were assessed for changes in clinical condition. […] (Scale bar=500 μm (FIG. 11-1), Scale bar=200 μm (FIGS. 11-2 and 11-3)).
substance,measurement,setting,value
lecithinized superoxide dismutase [PC-SOD],influence on the anti-tumor effect of oxaliplatin (cell proliferation),[1],did not affect the anti-tumor effect of oxaliplatin
same,neurite retraction caused by carboplatin,"[2]; carboplatin 50 μM, PC-SOD 10, 20, 50, 100 μg/mL, FIG. 7-2",suppressed by simultaneous addition of PC-SOD dependently on the PC-SOD concentration
same,neurite retraction caused by cisplatin,"[2]; cisplatin 33 μM, PC-SOD 10, 50, 100 μg/mL, FIG. 7-1",significantly suppressed as compared with addition of cisplatin alone
same,neurite retraction caused by oxaliplatin,"[2]; PC-SOD 10, 50, 100 μg/mL, FIG. 7-1",markedly suppressed by simultaneous addition of PC-SOD dependently on the PC-SOD concentration
same,neurite retraction caused by oxaliplatin,"[2]; test substance 50 μg/mL, FIG. 8",suppressed almost completely
same,neurite retraction caused by paclitaxel,"[2]; paclitaxel 0.1 μM, PC-SOD 10, 50, 100 μg/mL, FIG. 7-3",suppressed by simultaneous addition of PC-SOD dependently on the PC-SOD concentration
same,increase in kidney weight and swelling of the kidney caused by CIS,"[3]; PC-SOD 1 mg/kg caudal vein, FIG. 10-1, 10-2",the suppressive effect on an increase in the kidney weight and swelling of the kidney caused by CIS was confirmed
same,pathological damage to the kidney caused by CIS (PAS staining),"[3]; PC-SOD 1 mg/kg, FIG. 11-1",a suppressive effect on pathological damage to the kidney caused by CIS was observed
same,renal fibrosis caused by CIS (Picrosirius Red and α-SMA staining),"[3]; PC-SOD 1 mg/kg, FIG. 11-2, 11-3",decreases of fibrosis-positive regions in the kidney caused by CIS were detected
